Source: article PMC7249156, “Tricyclic Derivative of Acyclovir and Its Esters in Relation to the Esters of Acyclovir Enzymatic Stability: Enzymatic Stability Study” (Molecules, 2020)
Like-named read-outs stand apart in the source and are kept apart here.

Experiments:
[1] = Stability test (hydrolysis) in human plasma (80%, 37 °C); format: in vitro ADME
Protocol: The condition for determining the values of the observed rate constants is to observe changes in the concentration of the tested compound over time ensuring degradation of at least 80% of the compound. In plasma, hydrolysis reactions were carried out until a minimum 50% loss of the tested compound was obtained except for the extremely stable 6-(4-MeOPh)-TACV under these conditions. In this case, the observed loss was 22% during the 25-h reaction. Further carrying out of this reaction in vitro in a temperature of 37 °C was not recommended (Figure 2).
Stability tests were performed in human plasma (80%, v/v) thermostated in a water bath at 37 °C. In total, 2.50 mg of each of the analyzed compounds were weighed and dissolved in 0.5 mL of DMSO (5.0 mg/mL). For plastic screw-on tubes containing 4.0 mL of plasma, 0.8 mL of PBS buffer were added, mixed, and thermostated in a water bath. Then, 0.2 mL of the tested compound solution in DMSO (5.0 mg/mL) were added to the incubated plasma. Samples were thermostated at 37 °C and at specified intervals. After mixing, 0.2 mL of the test sample were taken and transferred to 0.4 mL of the appropriate internal standard solution (Table 1). After mixing, the samples were centrifuged for […] (5 min, 13,000 rpm). The supernatant was transferred to the tubes and analyzed by the HPLC method in a suitable phase system (Table 1). The initial concentration of the tested compounds in the plasma was 200 μg/mL, while in the analyte solution (supernatant) it was 66.7 μg/mL.
(§1) The HPLC-MS/MS method was used for analysis of the solutions hydrolyzed in plasma (80% v/v, 37 °C, 24 h) and in plasma (80%, v/v) with porcine esterase at a concentration of 5.50 × 10^−9 M (37 °C, 2 h). The samples were prepared according to the procedure described in Section 3.4.1 and Section 3.4.2, and then diluted with water in a proportion of 1:100 (v/v).

[2] = tested on: esterase from porcine liver (PLE); experiment: Stability test in plasma (80%, 37 °C) with porcine liver esterase; format: in vitro ADME; details: for kobs. ± Δkobs. / t0.5: plasma 80%
Description: For the correct interpretation of the distribution of the tested compounds under the influence of esterase, it is necessary to know the specificity of the enzymatic reactions (Scheme 1). The biotransformation occurring during enzymatic hydrolysis can be treated as a limited capacity process and described using the Michaelis–Menten equation:(2) V=−dc/dt=Vm·c/KM+c, where: c—substance concentration, V = −(dc/dt)—rate of change of substance concentration, Vm—maximum theoretical speed of the process, and KM—Michaelis constant (numerically equal to the concentration of the substance at which its elimination occurs at a rate equal to half of Vm).
In case the value of the Michaelis constant is much higher than the concentration of the substance (KM >> c), Equation (2) can be simplified to the form of:(3) V=−dc/dt=k2/KM·cE·c=Vm/KM·c=kobs.·c, where: cE—enzyme concentration.
After transformation:(4) kobs.=k2/KM·cE=Vm/KM.
A 1 U/μL aqueous pork esterase solution was prepared by diluting the suspension with 200 μL of water. Here, 168,000 Da was used as the molecular weight of the esterase and the molar concentration of the enzyme in a determined volume of the test sample of 5.0 mL was calculated (1 μL of the enzyme solution in 5.0 mL corresponded to a concentration of 5.50 × 10^−9 M).
For plastic screw-on tubes containing 4.0 mL of plasma, 0.8 mL of PBS buffer was added, mixed, and thermostated in a water bath (37 °C). A fixed volume of enzyme (0.5–11.0 μL) was added to the incubated plasma, mixed, and thermostated for 15 min. Then, 0.2 mL of the tested compound solution in DMSO (5.00 mg/mL) were added, mixed thoroughly, and proceeded as described in Section 3.4.1.
as §1

[3] = Stability of the analyte (supernatant) on storage; format: physicochemical; details: supernatant stored in freezer (−20 °C)
Protocol: For each substance, samples with two concentrations in the linearity range of the method were prepared. The supernatants of both solutions were analyzed by HPLC immediately after preparation and after storage at room temperature (25 °C), in a refrigerator (4 °C) and freezer compartment (−20 °C). The degree of decomposition of the tested compounds with respect to the initial value was determined.

[4] = set-up: method as in PMID 18638532; details: valaciclovir; cited from earlier work

Structure (SMILES)	kobs. ± Δkobs. (pseudo-first-order rate constant of hydrolysis) ([1]; human plasma 80%)	t0.5 ([1]; human plasma 80%)	kobs. ± Δkobs. ([2]; cE 2.0 U, 1.10·10^−8 M)	t0.5 ([2]; cE 2.0 U, 1.10·10^−8 M)	kobs. ± Δkobs. ([2]; cE 3.0 U, 1.65·10^−8 M)	t0.5 ([2]; cE 3.0 U, 1.65·10^−8 M)	kobs. ± Δkobs. ([2]; cE 4.0 U, 2.20·10^−8 M)	t0.5 ([2]; cE 4.0 U, 2.20·10^−8 M)	kobs. ± Δkobs. ([2]; cE 6.0 U, 3.30·10^−8 M)	t0.5 ([2]; cE 6.0 U, 3.30·10^−8 M)	time for which analyte solution was considered stable [3]	kobs. ± Δkobs. ([2]; cE 5.0 U, 2.75·10^−8 M)	t0.5 ([2]; cE 5.0 U, 2.75·10^−8 M)	other results
COc1ccc(-c2cn3c(=O)c4ncn(COCCO)c4nc3[nH]2)cc1 [6-(4-MeOPh)-TACV, 3,9-Dihydro-3-[(2-hydroxyethoxy)methyl]-6-(4-methoxyphenyl)-9-oxo-5H-imidazo[1,2-a]–purine]	(2.81 ± 0.36)·10^−6 s^−1	68.40 h	(7.39 ± 0.49)·10^−6 s^−1	1560 min	(8.21 ± 0.58)·10^−6 s^−1	1410 min	(8.37 ± 0.24)·10^−6 s^−1	1360 min	(9.58 ± 0.39)·10^−6 s^−1	1210 min	27 days			observed loss of compound ([1]; human plasma 80%, 25-h reaction): 22%; degree of hydrolysis seen by HPLC-MS/MS ([1]; plasma 80%, 24 h): occurred to a small extent; degree of hydrolysis seen by HPLC-MS/MS ([2]; plasma 80% with porcine esterase 5.50·10^−9 M, 2 h): occurred to a small extent
CC(=O)OCCOCn1cnc2c(=O)[nH]c(N)nc21 [Ac-ACV]	(6.47 ± 0.49)·10^−5 s^−1	2.98 h		264 min			(7.94 ± 0.23)·10^−5 s^−1	144 min	(1.15 ± 0.02)·10^−4 s^−1	102 min				kobs. ± Δkobs. ([2]; cE 8.0 U, 4.40·10^−8 M): (1.55 ± 0.04)·10^−4 s^−1; t0.5 ([2]; cE 8.0 U, 4.40·10^−8 M): 72 min
CCOC(=O)OCCOCn1cnc2c(=O)[nH]c(N)nc21 [Etc-ACV]	(7.99 ± 0.37)·10^−5 s^−1	2.41 h	(6.48 ± 0.35)·10^−4 s^−1	17.8 min	(8.60 ± 0.34)·10^−4 s^−1	13.4 min	(1.20 ± 0.03)·10^−3 s^−1	9.6 min			27 days	(1.54 ± 0.07)·10^−3 s^−1	7.5 min	
Nc1nc2c(ncn2COCCOC(=O)c2cccnc2)c(=O)[nH]1 [Nic-ACV]	(4.31 ± 0.23)·10^−4 s^−1	0.45 h			(5.35 ± 0.23)·10^−4 s^−1	21.6 min	(5.59 ± 0.50)·10^−4 s^−1	20.7 min	(6.03 ± 0.22)·10^−4 s^−1	19.2 min		(5.77 ± 0.32)·10^−4 s^−1	20.0 min	
CC(C)(C)C(=O)OCCOCn1cnc2c(=O)[nH]c(N)nc21 [Piv-ACV]	(2.38 ± 0.17)·10^−5 s^−1	8.09 h	(4.71 ± 0.10)·10^−4 s^−1	24.5 min	(8.11 ± 0.15)·10^−4 s^−1	14.3 min					27 days	(1.40 ± 0.04)·10^−3 s^−1	8.3 min	kobs. ± Δkobs. ([2]; cE 1.0 U, 5.50·10^−9 M): (2.97 ± 0.09)·10^−4 s^−1; t0.5 ([2]; cE 1.0 U, 5.50·10^−9 M): 38.9 min
CC(C)C(=O)OCCOCn1cnc2c(=O)[nH]c(N)nc21 [iBut-ACV]	(4.16 ± 0.16)·10^−4 s^−1	0.46 h	(3.98 ± 0.13)·10^−3 s^−1	2.9 min	(5.49 ± 0.20)·10^−3 s^−1	2.1 min								kobs. ± Δkobs. ([2]; cE 0.5 U, 2.75·10^−9 M): (1.24 ± 0.12)·10^−3 s^−1; t0.5 ([2]; cE 0.5 U, 2.75·10^−9 M): 9.3 min; kobs. ± Δkobs. ([2]; cE 1.0 U, 5.50·10^−9 M): (2.24 ± 0.09)·10^−3 s^−1; t0.5 ([2]; cE 1.0 U, 5.50·10^−9 M): 5.2 min
CC(C)[C@H](N)C(=O)OCCOCn1cnc2c(=O)[nH]c(N)nc21 [valaciclovir]														t0.5 [4]: 226 h
